Assay results taken from publication PMC7956166, “Phage-Display Based Discovery and Characterization of Peptide Ligands against WDR5” (Molecules, 2021).
Positions of bridges follow the written chain, without caps; N, C: chain ends. Residues, ends and D or L forms follow the SMILES beside them. No end group written: not given here.

Biological target: T1, WDR5 (Homo sapiens, UniProt P61964)
T1 construct: DNA fragment encoding amino acids 23 to 483 of WDR5 subcloned in the pET-28a plasmid; His6 (N); SUMO (N); made in house; host or cells: Escherichia coli BL21(DE3)
Test: Fluorescence polarization (FP) competitive binding assay
Details: for EC50: FP competitive assay vs fluorescently labeled tracer (2.5 nM), 0.2 M phosphate, 300 mM NaCl, 0.1% CHAPS, pH 6.5, 0.5 mM TCEP, 4 h incubation, 384-well plate, two independent experiments; for EC50 / Ki: mean ± standard error; for Ki: Ki from nonlinear regression fitting based on Kd of the probe, protein 5 nM
Description: The fluorescence polarization (FP) binding assays used to evaluate the ability of these cyclic peptides targeting protein WDR5 were carried out in the 384-well plate. We synthesized the fluorescently labeled positive compound [28, 29]: 1-((3′,6′-dihydroxy-3-oxo-3H-spiro[isobenzofuran-1,9′-xanthen]-5-yl)amino)-N-(3′-(3,5-dimethylbenzamido)-4′-(4-methylpiperazin-1-yl)-[1,1′-biphenyl]-4-yl)-1-thioxo-5,8,11-trioxa-2-azatetradecan-14-amide, which was used in direct binding assay against WDR5. 10 μL of 10 nM positive compound was added to 20 μL WDR5(the final concentration was 5 nM) in the buffer containing 0.2 M phosphate; 300 mM NaCl; 0.1%CHAPS; PH 6.5; 0.5 mM TCEP. Then the peptide compound to be tested was diluted in a gradient and added to each well with 10μL. Finally, the assay was carried out in 40 μL volume and the protein tracer mixture was incubated for 4 h before reading the plate. The fluorescence polarization was measured in Synergy™ Neo2 Multi-Mode Microplate Reader using an excitation filter at 485 nm and an emission filter at 535 nm. Each experiment was done two times and each polarization readings consisted of two averaged measurements. The reading is processed by the following formula:(1) Inhibition=C−F/C−B×100% where C is the anisotropy value of the fluorescence substrate bound to the protein completely, B is the anisotropy value of the fluorescence substrate, F is the corresponding anisotropy value after adding different concentrations of peptides. The data were plotted against the log peptide concentration and was fitted into a one site-Fit logIC50 equation with Graphpad Prim5 software using nonlinear regression model to obtain the competitive curve:(2) Y=A+B−A/1+10^(x−LogIC50) where x is log10 of the compound concentration in M, Y is the inflection point (EC50 or IC50), A is the bottom plateau effect, B is the top plateau effect. Potency (IC50/EC50) is the log of the concentration of competitor that results in binding half-way between bottom and top.
The EC50 values of peptides were determined in competitive binding experiments by nonlinear regression fitting of the competition curves as mentioned above. And Ki values of competitive inhibitors were obtained directly by nonlinear regression fitting, based upon the Kd values of the probe to different proteins and concentrations of the proteins and probes in the competitive assays. The data is processed by the following formula:(3) F0=P+L0+Kd−(P+L0+Kd)^2−4×P×L0/2×L0 (4) IC50/F0×Kd/(1−F0)(2−F0)+F0×L0/2=Ki(2−F0)/Kd×F0+1 where P is the proteins concentration in the assay (5 nM), L0 is the Tracer concentration in the assay (2.5 nM), F0 and the corresponding Ki value can be calculated according to the above formula.

[1] = FP competitive assay, tracer 2.5 nM

Compound: CC(C)C[C@@H]1NC(=O)[C@H]([C@@H](C)O)NC(=O)[C@H](CCCNC(=N)N)NC(=O)[C@@H](N)CSSC[C@@H](C(=O)O)NC(=O)[C@H](CCC(=O)O)NC(=O)[C@H](Cc2c[nH]cn2)NC(=O)[C@H](Cc2ccccc2)NC(=O)[C@@H]2CCCN2C1=O [D206115] (H-CRTLPFHEC-OH; disulfide 1-9)
- EC50 (WDR5 5 nM): 5900 ± 200 nM
- Ki [1]: 1200 ± 40 nM

Compound: CC(C)C[C@@H]1NC(=O)[C@H]([C@@H](C)O)NC(=O)[C@H](CCCNC(=N)N)NC(=O)[C@@H](N)CSSC[C@@H](C(=O)O)NC(=O)[C@H](CC(N)=O)NC(=O)[C@H](CC(N)=O)NC(=O)[C@H](Cc2c[nH]c3ccccc23)NC(=O)[C@@H]2CCCN2C1=O [D206179] (H-CRTLPWNNC-OH; disulfide 1-9)
- EC50 (WDR5 5 nM): 2300 ± 600 nM
- Ki [1]: 500 ± 100 nM

Compound: CC(C)C[C@@H]1NC(=O)[C@H]([C@@H](C)O)NC(=O)[C@H](CCCNC(=N)N)NC(=O)[C@@H](N)CSSC[C@@H](C(=O)O)NC(=O)[C@H](C)NC(=O)CNC(=O)[C@H](Cc2ccc(O)cc2)NC(=O)[C@@H]2CCCN2C1=O [D206180] (H-CRTLPYGAC-OH; disulfide 1-9)
- EC50 (WDR5 5 nM): 2700 ± 200 nM
- Ki [1]: 500 ± 50 nM

Compound: CC(C)C[C@@H]1NC(=O)[C@H]([C@@H](C)O)NC(=O)[C@H](CCCNC(=N)N)NC(=O)[C@@H](N)CSSC[C@@H](C(=O)O)NC(=O)[C@H](CO)NC(=O)CNC(=O)[C@H](Cc2ccccc2)NC(=O)[C@@H]2CCCN2C1=O [D206181] (H-CRTLPFGSC-OH; disulfide 1-9)
- EC50 (WDR5 5 nM): 4400 ± 400 nM
- Ki [1]: 900 ± 80 nM

Compound: CEKMVATHC (disulfide 1-9 (inferred)) [D206116, disulfide-constrained cyclic peptide from phage display, without “RT” motif]
- binding to WDR5 (in words) (FP competitive assay, WDR5 5 nM, tracer 2.5 nM, pH 6.5): unable to bind to WDR5
